Assay results reported in ChEMBL document CHEMBL1201862, “PubChem BioAssay data set” (2004).
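The compound was tested at five concentrations on cells cultured in 96-well plates, with a 48-hour exposure period. The concentration for 50% growth inhibition is given as GI50.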 The source made the active and inactive calls. Rule as the data show it: active = GI50 up to about 1.1 µM and inactive = higher.

Columns and labels:
Test in all cases: NCI tumour cell line growth inhibition, 48 h
NCI-H522 = tested on: NCI-H522
COLO 205 = tested on: COLO 205
OVCAR-3 = tested on: OVCAR-3
SN12C = tested on: SN12C
SF-268 = tested on: SF-268
K562 = tested on: K562
TK-10 = tested on: TK-10
NCI-H226 = tested on: NCI-H226
XF498 = tested on: XF498
LXFL 529 = tested on: LXFL 529
RPMI-8226 = tested on: RPMI-8226
NCI-H460 = tested on: NCI-H460
UACC-257 = tested on: UACC-257
HCT-15 = tested on: HCT-15
A549 = tested on: A549
ACHN = tested on: ACHN
Malme-3M = tested on: Malme-3M
HT-29 = tested on: HT-29
CCRF-CEM = tested on: CCRF-CEM
SNB-19 = tested on: SNB-19
KM12 = tested on: KM12
HL-60 = tested on: HL-60
U-251 = tested on: U-251
OVCAR-4 = tested on: OVCAR-4
KM-20L2 = tested on: KM-20L2
SF-295 = tested on: SF-295
MOLT-4 = tested on: MOLT-4
RXF 631 = tested on: RXF 631
OVCAR-8 = tested on: OVCAR-8
CAKI-1 = tested on: CAKI-1
SNB-75 = tested on: SNB-75
SR = tested on: SR
RXF 393 = tested on: RXF 393
SK-MEL-5 = tested on: SK-MEL-5
M14 = tested on: M14
A498 = tested on: A498
NCI-H23 = tested on: NCI-H23
HCT-116 = tested on: HCT-116
SK-MEL-2 = tested on: SK-MEL-2
SW-620 = tested on: SW-620
DMS-273 = tested on: DMS-273
OVCAR-5 = tested on: OVCAR-5
SK-OV-3 = tested on: SK-OV-3
HOP-62 = tested on: HOP-62
EKVX = tested on: EKVX
DMS-114 = tested on: DMS-114
SNB-78 = tested on: SNB-78
UACC-62 = tested on: UACC-62
DLD-1 = tested on: DLD-1
M19-MEL = tested on: M19-MEL
UO-31 = tested on: UO-31
HOP-92 = tested on: HOP-92
HCC 2998 = tested on: HCC 2998
IGROV-1 = tested on: IGROV-1
HOP-18 = tested on: HOP-18
786-0 = tested on: 786-0
SF-539 = tested on: SF-539
LOX IMVI = tested on: LOX IMVI
SK-MEL-28 = tested on: SK-MEL-28

Compound: C/C=C/C1(NS(=O)(=O)c2ccc(C)cc2)CCC(C(C)(C)C)CC1 (configuration not stated)
- GI50 (NCI-H522): 11.6 µM (inactive)
- GI50 (COLO 205): 20 µM (inactive)
- GI50 (OVCAR-3): 17.7 µM (inactive)
- GI50 (SN12C): 18.2 µM (inactive)
- GI50 (SF-268): 29.6 µM (inactive)
- GI50 (K562): 35.5 µM (inactive)
- GI50 (TK-10): 35.8 µM (inactive)
- GI50 (NCI-H226): 20.6 µM (inactive)
- GI50 (XF498): 20.2 µM (inactive)
- GI50 (LXFL 529): 37.5 µM (inactive)
- GI50 (RPMI-8226): 21.6 µM (inactive)
- GI50 (NCI-H460): 21.7 µM (inactive)
- GI50 (UACC-257): 25.4 µM (inactive)
- GI50 (HCT-15): 28.6 µM
- GI50 (A549): 40.7 µM (inactive)
- GI50 (ACHN): 36.2 µM (inactive)
- GI50 (Malme-3M): 22.2 µM (inactive)
- GI50 (HT-29): 18 µM (inactive)
- GI50 (CCRF-CEM): 19.5 µM (inactive)
- GI50 (SNB-19): 42.2 µM (inactive)
- GI50 (KM12): 20.8 µM (inactive)
- GI50 (HL-60): 23.4 µM (inactive)
- GI50 (U-251): 16.1 µM (inactive)
- GI50 (OVCAR-4): 23 µM (inactive)
- GI50 (KM-20L2): 20.1 µM (inactive)
- GI50 (SF-295): 26.2 µM (inactive)
- GI50 (MOLT-4): 16.5 µM (inactive)
- GI50 (RXF 631): 24.7 µM (inactive)
- GI50 (OVCAR-8): 36.1 µM (inactive)
- GI50 (CAKI-1): 28.8 µM (inactive)
- GI50 (SNB-75): 53.6 µM (inactive)
- GI50 (SR): 13.6 µM (inactive)
- GI50 (RXF 393): 24.3 µM (inactive)
- GI50 (SK-MEL-5): 17.5 µM (inactive)
- GI50 (M14): 17.3 µM (inactive)
- GI50 (A498): 24 µM (inactive)
- GI50 (NCI-H23): 18.8 µM (inactive)
- GI50 (HCT-116): 20.1 µM (inactive)
- GI50 (SK-MEL-2): 17.3 µM (inactive)
- GI50 (SW-620): 26.1 µM (inactive)
- GI50 (DMS-273): 16 µM (inactive)
- GI50 (OVCAR-5): 20.7 µM (inactive)
- GI50 (SK-OV-3): 27.4 µM (inactive)
- GI50 (HOP-62): 22 µM (inactive)
- GI50 (EKVX): 23 µM (inactive)
- GI50 (DMS-114): 27 µM (inactive)
- GI50 (SNB-78): 25.6 µM (inactive)
- GI50 (UACC-62): 19 µM (inactive)
- GI50 (DLD-1): 35.8 µM (inactive)
- GI50 (M19-MEL): 19.7 µM (inactive)
- GI50 (UO-31): 25.4 µM (inactive)
- GI50 (HOP-92): 19.7 µM (inactive)
- GI50 (HCC 2998): 16.2 µM (inactive)
- GI50 (IGROV-1): 28.8 µM (inactive)
- GI50 (HOP-18): 34.9 µM (inactive)
- GI50 (786-0): 19 µM (inactive)
- GI50 (SF-539): 21.4 µM (inactive)

Compound: N#CCCN(c1ccc(/C=N/c2ccccc2Cl)cc1)S(=O)(=O)c1ccccc1
- GI50 (LOX IMVI): > 100 µM (inactive)
- GI50 (NCI-H522): > 100 µM (inactive)
- GI50 (COLO 205): > 100 µM (inactive)
- GI50 (OVCAR-3): > 100 µM (inactive)
- GI50 (SN12C): > 100 µM (inactive)
- GI50 (SF-268): > 100 µM (inactive)
- GI50 (K562): > 100 µM (inactive)
- GI50 (TK-10): > 100 µM (inactive)
- GI50 (NCI-H226): > 100 µM (inactive)
- GI50 (XF498): > 100 µM (inactive)
- GI50 (LXFL 529): > 100 µM (inactive)
- GI50 (RPMI-8226): > 100 µM (inactive)
- GI50 (NCI-H460): > 100 µM (inactive)
- GI50 (UACC-257): > 100 µM (inactive)
- GI50 (HCT-15): > 100 µM
- GI50 (A549): > 100 µM (inactive)
- GI50 (ACHN): > 100 µM (inactive)
- GI50 (Malme-3M): > 100 µM (inactive)
- GI50 (HT-29): > 100 µM (inactive)
- GI50 (SK-MEL-28): > 100 µM (inactive)
- GI50 (SNB-19): > 100 µM (inactive)
- GI50 (KM12): > 100 µM (inactive)
- GI50 (HL-60): > 100 µM (inactive)
- GI50 (U-251): > 100 µM (inactive)
- GI50 (OVCAR-4): > 100 µM (inactive)
- GI50 (KM-20L2): > 100 µM (inactive)
- GI50 (SF-295): > 100 µM (inactive)
- GI50 (MOLT-4): > 100 µM (inactive)
- GI50 (RXF 631): > 100 µM (inactive)
- GI50 (OVCAR-8): > 100 µM (inactive)
- GI50 (CAKI-1): > 100 µM (inactive)
- GI50 (SNB-75): > 100 µM (inactive)
- GI50 (SR): > 100 µM (inactive)
- GI50 (RXF 393): > 100 µM (inactive)
- GI50 (SK-MEL-5): > 100 µM (inactive)
- GI50 (M14): > 100 µM (inactive)
- GI50 (A498): > 100 µM (inactive)
- GI50 (NCI-H23): > 100 µM (inactive)
- GI50 (HCT-116): > 100 µM (inactive)
- GI50 (SK-MEL-2): > 100 µM (inactive)
- GI50 (SW-620): > 100 µM (inactive)
- GI50 (DMS-273): > 100 µM (inactive)
- GI50 (OVCAR-5): > 100 µM (inactive)
- GI50 (SK-OV-3): > 100 µM (inactive)
- GI50 (HOP-62): > 100 µM (inactive)
- GI50 (EKVX): > 100 µM (inactive)
- GI50 (DMS-114): > 100 µM (inactive)
- GI50 (SNB-78): > 100 µM (inactive)
- GI50 (UACC-62): > 100 µM (inactive)
- GI50 (DLD-1): > 100 µM (inactive)
- GI50 (M19-MEL): > 100 µM (inactive)
- GI50 (UO-31): > 100 µM (inactive)
- GI50 (HOP-92): > 100 µM (inactive)
- GI50 (HCC 2998): > 100 µM (inactive)
- GI50 (IGROV-1): > 100 µM (inactive)
- GI50 (HOP-18): > 100 µM (inactive)
- GI50 (786-0): > 100 µM (inactive)
- GI50 (SF-539): > 100 µM (inactive)

Compound: CCCSS[C@H]1NC(=O)[C@H]1NC(=O)COc1ccccc1
- GI50 (LOX IMVI): 16.4 µM (inactive)
- GI50 (COLO 205): 12.3 µM (inactive)
- GI50 (OVCAR-3): 17.3 µM (inactive)
- GI50 (SN12C): 15.1 µM (inactive)
- GI50 (SF-268): 20 µM (inactive)
- GI50 (K562): 6.19 µM (inactive)
- GI50 (TK-10): 27.9 µM (inactive)
- GI50 (XF498): 17.8 µM (inactive)
- GI50 (LXFL 529): 5.66 µM (inactive)
- GI50 (RPMI-8226): 14 µM (inactive)
- GI50 (NCI-H460): 17.6 µM (inactive)
- GI50 (UACC-257): 14.4 µM (inactive)
- GI50 (HCT-15): 11.7 µM
- GI50 (A549): 24.4 µM (inactive)
- GI50 (ACHN): 16.6 µM (inactive)
- GI50 (Malme-3M): 13.8 µM (inactive)
- GI50 (HT-29): 19.8 µM (inactive)
- GI50 (SK-MEL-28): 16.6 µM (inactive)
- GI50 (CCRF-CEM): 3.85 µM (inactive)
- GI50 (SNB-19): > 100 µM (inactive)
- GI50 (KM12): 17.2 µM (inactive)
- GI50 (HL-60): 2.6 µM (inactive)
- GI50 (U-251): 17.7 µM (inactive)
- GI50 (OVCAR-4): 17.3 µM (inactive)
- GI50 (KM-20L2): 20.9 µM (inactive)
- GI50 (SF-295): 41.9 µM (inactive)
- GI50 (MOLT-4): 1.28 µM (inactive)
- GI50 (RXF 631): 17.5 µM (inactive)
- GI50 (OVCAR-8): 13.9 µM (inactive)
- GI50 (CAKI-1): 17.3 µM (inactive)
- GI50 (SNB-75): 21.1 µM (inactive)
- GI50 (SR): 3.16 µM (inactive)
- GI50 (RXF 393): 16.1 µM (inactive)
- GI50 (SK-MEL-5): 22.8 µM (inactive)
- GI50 (M14): 12 µM (inactive)
- GI50 (A498): 24.8 µM (inactive)
- GI50 (NCI-H23): 17.7 µM (inactive)
- GI50 (HCT-116): 10.3 µM (inactive)
- GI50 (SK-MEL-2): 17.9 µM (inactive)
- GI50 (SW-620): 5.74 µM (inactive)
- GI50 (DMS-273): 17.4 µM (inactive)
- GI50 (OVCAR-5): 59 µM (inactive)
- GI50 (SK-OV-3): > 100 µM (inactive)
- GI50 (HOP-62): > 100 µM (inactive)
- GI50 (EKVX): 20.6 µM (inactive)
- GI50 (DMS-114): 19 µM (inactive)
- GI50 (SNB-78): 25.8 µM (inactive)
- GI50 (UACC-62): 17.9 µM (inactive)
- GI50 (DLD-1): 11.1 µM (inactive)
- GI50 (M19-MEL): 17.9 µM (inactive)
- GI50 (UO-31): 32.5 µM (inactive)
- GI50 (HOP-92): 10.4 µM (inactive)
- GI50 (HCC 2998): 15.5 µM (inactive)
- GI50 (IGROV-1): 21.1 µM (inactive)
- GI50 (HOP-18): 28 µM (inactive)
- GI50 (786-0): 17.4 µM (inactive)
- GI50 (SF-539): 15.3 µM (inactive)
